# PubChem BioAssay (NCI)
# Where “and” joins values, the source holds several entries; their conditions need not be identical. Equal values may be shown once.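 Interpolation was linear, between the two tested concentrations surrounding the appropriate level; five concentrations were tested over 48 hours in 96-well plates. The concentration for 50% growth inhibition is given as GI50. The concentration for full growth arrest is given as TGI.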
# Columns and labels:
# Test in all cases: DTP human tumour cell line panel, 48 h
# [1] = system: DLD-1 colon
# [2] = system: HOP-18 NSCLC
# [3] = system: KM20L2 colon
# [4] = system: LXFL 529 NSCLC
# [5] = system: M19-MEL melanoma
# [6] = system: SNB-78 CNS
# [7] = system: XF 498 CNS
# [8] = system: MDA-N
# [9] = system: RXF-631 renal
SMILES,TGI [1],TGI [2],TGI [3],TGI [4],TGI [5],TGI [6],TGI [7],TGI [8],also measured
CC1=NN(c2ccccc2)C(=O)C12[C@H](c1ccccc1)C2(C#N)C#N (stereo partly drawn),4.01 µM,20.3 µM,27.3 µM,3.89 µM,6.41 µM,34 µM,7.22 µM,–,–
O=C(O)CSC1=NNC2(C(=O)N1)c1ccccc1-c1ccccc12,–,–,–,–,–,–,–,> 10 µM,–
O=C(c1ccccc1)c1nnn(Cc2ccccc2Cn2nnc(C(=O)c3ccccc3)c2C(=O)c2ccccc2)c1C(=O)c1ccccc1,> 100 µM,> 100 µM,> 100 µM,> 100 µM,> 100 µM,> 100 µM,–,–,–
COC(=O)c1onc(C2OC(C)(C)OC2C(O)COC(c2ccccc2)(c2ccccc2)c2ccccc2)c1C(=O)OC (stereo not drawn),–,–,–,–,–,–,–,> 100 µM,–
COc1c(OC)c(OC)c2c(=O)cc(-c3ccc(OC(C)C)cc3)oc2c1OC,–,–,–,–,–,–,–,> 53.8 µM,–
COc1cc(Cl)c(CC(=O)c2c[nH]c3ccccc23)cc1OC,–,–,–,–,–,–,–,> 100 µM,–
C1CSC[C@H]2COC[C@@H](CSCCS1)S2,–,–,–,–,–,–,–,> 100 µM,–
CCC1CCCCN1CC(C(C)=O)C(c1ccccc1)c1c(O)c2ccccc2oc1=O (stereo not drawn),> 100 µM,–,> 100 µM,–,> 100 µM,> 100 µM,> 100 µM,–,TGI [9]: > 100 µM
CN(C)C=N[C@@H](C(=O)O)c1ccccc1,–,–,–,–,–,–,–,> 100 µM,–
C=CCC12CC(=O)CCC1c1ccc(OC)cc1C2=O (stereo not drawn),> 100 µM,> 100 µM,> 100 µM,> 100 µM,> 100 µM,> 100 µM,–,–,–
COc1cc(/C=C/C(=O)CC(=O)/C=C/c2cc(OC)c(O)c(OC)c2)cc(OC)c1O,–,–,–,–,–,–,–,11.2 µM and > 100 µM,GI50 [8]: 16.9 µM
CCCCCCCCCCCNC=O,–,–,–,–,–,–,–,> 100 µM,–
CC(/C=C/C(=O)c1sc(C(N)=S)nc1C)=C\c1ccccc1,57.4 µM,> 100 µM,> 100 µM,> 100 µM,> 100 µM,> 100 µM,> 100 µM,–,TGI [9]: > 100 µM
COc1cc(C)cc(C(=O)/C=C/c2ccccc2)c1O,–,–,–,–,–,–,–,55.2 µM,–
Cc1cc(=O)[nH]c(NNC(C#N)c2ccccc2O)n1 (stereo not drawn),> 100 µM,> 100 µM,> 100 µM,–,> 100 µM,–,–,–,–
COc1ccc(CSC2=C(C#N)C(=O)NC3(CCCCC3)S2)cc1,–,–,–,–,–,–,–,57.5 µM,–
Cc1ccc(N2C(=O)/C(=C/c3ccc(N(CCC#N)CCC#N)cc3)N=C2COc2ccc(Cl)cc2Cl)cc1,> 100 µM,> 100 µM,> 100 µM,> 100 µM,–,> 100 µM,> 100 µM,–,TGI [9]: > 100 µM
NC(N)=NC(N)=Nc1ccc(C(=O)O)cc1,–,–,–,–,–,–,–,> 100 µM,–
O=C1C(Cl)=C(Cl)C(=O)N1c1ccc(Cl)c(Cl)c1Cl,> 100 µM,> 100 µM,> 100 µM,88 µM,> 100 µM,> 100 µM,–,–,TGI [9]: > 100 µM
Brc1cc(C2OCCCO2)ccc1OCc1ccccc1,> 100 µM,–,–,> 100 µM,> 100 µM,> 100 µM,> 100 µM,–,–
C=C(C)[C@@H]1CCc2c(O)c(O)c(=O)cc(C)c2C1,–,–,–,–,–,–,–,> 100 µM,–
CC(C)C1(NC(=O)C2CC3c4cccc5[nH]cc(c45)CC3N(C)C2)OC2(O)C3CCCN3C(=O)C(Cc3ccccc3)N2C1=O (stereo not drawn),–,–,–,–,–,–,–,> 100 µM,–

SMILES,TGI [1],TGI [2],TGI [3],TGI [4],TGI [5],TGI [6],TGI [7],TGI [8],also measured
CCOC(=O)c1sc2c(C(=O)OCC)n3cc(C)cc(C)c3c2c1O,> 100 µM,–,> 100 µM,> 100 µM,> 100 µM,> 100 µM,–,–,–
CCCC(O)c1cn(-c2cccc(S(=O)(=O)O)c2)nn1 (stereo not drawn),> 100 µM,> 100 µM,> 100 µM,> 100 µM,> 100 µM,> 100 µM,> 100 µM,–,TGI [9]: > 100 µM
COc1ccc(Br)c(CN2CCc3ccccc32)c1OS(=O)(=O)c1ccc(C)cc1,> 100 µM,> 100 µM,–,–,> 100 µM,> 100 µM,92 µM,–,TGI [9]: > 100 µM
O=C1C=CC(=O)c2c1ccc1c3ccccc3n(Cc3ccccc3)c21,–,–,–,–,–,–,–,54.4 µM,–
CCOC(=O)[C@@]12C(C)=CC(=O)O[C@]1(C)C1C(=O)NC(=O)C12 (stereo partly drawn),> 100 µM,> 100 µM,> 100 µM,> 100 µM,–,> 100 µM,–,–,TGI [9]: > 100 µM
CN1CCN=C1c1nnn(-c2ccc([N+](=O)[O-])cc2)c1-c1ccccc1,> 100 µM,> 100 µM,> 100 µM,> 100 µM,> 100 µM,> 100 µM,> 100 µM,–,–
COc1cc(Cc2c(C)cc(OC)c3[nH]c4ccccc4c23)cc2c1[nH]c1ccccc12,> 25 µM,–,10.8 µM,22.4 µM,> 25 µM,17 µM,> 25 µM,–,GI50 [1]: 8.99 µM; GI50 [3]: 5.28 µM; GI50 [4]: 4.13 µM; GI50 [5]: 9.67 µM; GI50 [7]: 6.03 µM
CS(=O)(=O)c1ccc(COP(N)(=O)N(CCCl)CCCl)cc1 (stereo not drawn),> 100 µM,–,> 100 µM,> 100 µM,> 100 µM,> 100 µM,> 100 µM,–,–
CCCCNS(=O)(=O)c1ccc(-c2ccc3c(c2)-c2ccc(S(=O)(=O)NCCCC)cc2S3(=O)=O)cc1,> 100 µM,54 µM,15.1 µM,33.9 µM,> 100 µM,33.4 µM,23.9 µM,–,–
CCCCCCC(=O)C/C(CCC(=O)N(Cc1ccccc1)Cc1ccccc1)=N\NC(N)=O,–,> 100 µM,> 100 µM,> 100 µM,> 100 µM,> 100 µM,> 100 µM,–,TGI [9]: > 100 µM
COc1ccc2c(c1O)[C@@]13CCCC=C1[C@@H](C2)[N+](C)(C)CC3,–,–,–,–,–,–,–,> 100 µM,–
COC(=O)/C(C#N)=C1\CCC(OC)N1C (stereo not drawn),> 100 µM,> 100 µM,> 100 µM,> 100 µM,> 100 µM,> 100 µM,> 100 µM,–,–
O=S(=O)(/N=S(/Nc1ccccc1)C(F)(F)Cl)c1ccccc1 (stereo not drawn),–,–,–,–,–,–,–,> 100 µM,–
CCc1ccc2oc(=O)ccc2c1,–,–,–,–,–,–,–,> 100 µM,–
CCC(C)(O)c1cn(-c2ccc(Cl)cc2)nn1 (stereo not drawn),> 100 µM,> 100 µM,> 100 µM,> 100 µM,> 100 µM,> 100 µM,–,–,–
O=C(O)c1c2c(cc3c(=O)c4ccccc4[nH]c13)CCCC2,–,> 100 µM,> 100 µM,> 100 µM,> 100 µM,> 100 µM,> 100 µM,–,TGI [9]: > 100 µM
COc1cc2c(cc1OC)C(C(CBr)CBr)N(C1CCCC1)CC2 (stereo not drawn),> 100 µM,–,–,> 100 µM,> 100 µM,–,> 100 µM,–,–
O=C1OC(=O)C23CSCC12C1C=CC3O1 (stereo not drawn),> 100 µM,–,> 100 µM,> 100 µM,> 100 µM,–,> 100 µM,–,–
Cc1ccc2oc(=O)c3c(O)c4cccc(OC5OC(C)C6O[C@@H](c7ccccc7)OC6C5OC5OC(C)C(O)C(O)C5O)c4c4oc(=O)c1c2c34 (stereo partly drawn),6.08 µM,19.4 µM,4.08 µM,6.5 µM,3.43 µM,5.23 µM,2.05 µM,1.72 µM,TGI [9]: 4.4 µM
Cc1ccccc1-n1c(=S)[nH]c2c(sc(=O)n2-c2ccccc2C)c1=O,> 100 µM,> 100 µM,> 100 µM,> 100 µM,> 100 µM,> 100 µM,–,–,TGI [9]: > 100 µM
CN1CCC(c2c(O)cc(O)c3c(=O)cc(-c4ccccc4Cl)oc23)C(O)C1 (stereo not drawn),> 100 µM,> 100 µM,> 100 µM,–,–,–,0.584 µM,–,GI50 [3]: 0.262 µM
COC(=O)C(=O)C(C(=O)C(=O)Nc1ccccc1[N+](=O)[O-])c1nc2ccc([N+](=O)[O-])cc2[nH]c1=O (stereo not drawn),–,> 100 µM,> 100 µM,> 100 µM,> 100 µM,> 100 µM,–,–,TGI [9]: > 100 µM
